The values below come from patent US7888339B2, “2-methylene-20(21)-dehydro-19-nor-vitamin D analogs” (Wisconsin Alumni Research Foundation, priority 2008, dated 2011).

The pEC50 is the EC50 on a negative log10 scale, so that one unit is a factor of ten. For orientation: pKi means the negative decadic logarithm of the Ki, by convention in mol/L.

One experiment deals with HL-60 cells. The experiment can be described thus: HL-60 cell differentiation (nitro blue tetrazolium reduction). It is filed as cell-based, human. The settings on record: for pEC50: HL-60 cells into monocytes, FIG. 2. On the procedure: The study drugs were dissolved in ethanol and the concentrations determined using UV spectrophotometry. Serial dilutions were prepared so that a range of drug concentrations could be tested without changing the final concentration of ethanol (≦0.2%) present in the cell cultures.
Human promyelocytic leukemia (HL60) cells were grown in RPMI-1640 medium containing 10% fetal bovine serum. The cells were incubated at 37° C. in the presence of 5% CO2.
HL60 cells were plated at 1.2×10^5 cells/ml. Eighteen hours after plating, cells in duplicate were treated with drug. Four days later, the cells were harvested and a nitro blue tetrazolium reduction assay was performed (Collins et al., 1979; J. Exp. Med. 149:969-974). The percentage of differentiated cells was determined by counting a total of 200 cells and recording the number that contained intracellular black-blue formazan deposits. Verification of differentiation to monocytic cells was determined by measuring phagocytic activity (data not shown).

For experiment [1], the system named is 24-hydroxylase (24Ohase) gene promoter in ROS 17/2.8 (bone) cells. The experiment can be described thus: In vitro transcription assay (24-hydroxylase gene promoter, luciferase reporter). It is filed as cell-based. The settings on record: ROS 17/2.8 cells, 24-hydroxylase promoter-luciferase; FIG. 3; read-out: EC50, transcriptional activity in bone cells. On the procedure:
Transcription activity was measured in ROS 17/2.8 (bone) cells that were stably transfected with a 24-hydroxylase (24Ohase) gene promoter upstream of a luciferase reporter gene (Arbour et al., 1998). Cells were given a range of doses. Sixteen hours after dosing the cells were harvested and luciferase activities were measured using a luminometer.
RLU=relative luciferase units.

Experiment [2] deals with bone calcium mobilization. The experiment can be described thus: Bone calcium mobilization (serum calcium) in vitamin D-deficient rats. The experiment is classed as in vivo, rat. The note with it: FIG. 4; for mobilization of bone calcium (serum calcium): ip, 4 consecutive days, rats on 0.02% Ca diet. The procedure:
(§1) Male, weanling Sprague-Dawley rats were placed on Diet 11 (0.47% Ca) diet+AEK oil for one week followed by Diet 11 (0.02% Ca)+AEK oil for 3 weeks. The rats were then switched to a diet containing 0.47% Ca for one week followed by two weeks on a diet containing 0.02% Ca. Dose administration began during the last week on 0.02% calcium diet. Four consecutive ip doses were given approximately 24 hours apart. Twenty-four hours after the last dose, blood was collected from the severed neck and the concentration of serum calcium determined as a measure of bone calcium mobilization. The first 10 cm of the intestine was also collected for intestinal calcium transport analysis using the everted gut sac method.

Experiment [3] relates to intestinal calcium transport. The experiment can be described thus: Intestinal calcium transport (everted gut sac method) in vitamin D-deficient rats. The experiment is classed as in vivo, rat. The note with it: FIG. 5; for intestinal calcium transport: 260 pmol/day, ip, 4 consecutive days, everted gut sac. The procedure: as §1
Experiment [4] has as its target T1, full-length recombinant rat vitamin D receptor (Rattus norvegicus, UniProt P13053).
T1 construct: Full-length recombinant rat receptor was expressed in E. coli; histidine tag (C); made in house; host or cells: E. coli BL21 (DE3) Codon Plus RIL
T1 sequence (P13053 1-423): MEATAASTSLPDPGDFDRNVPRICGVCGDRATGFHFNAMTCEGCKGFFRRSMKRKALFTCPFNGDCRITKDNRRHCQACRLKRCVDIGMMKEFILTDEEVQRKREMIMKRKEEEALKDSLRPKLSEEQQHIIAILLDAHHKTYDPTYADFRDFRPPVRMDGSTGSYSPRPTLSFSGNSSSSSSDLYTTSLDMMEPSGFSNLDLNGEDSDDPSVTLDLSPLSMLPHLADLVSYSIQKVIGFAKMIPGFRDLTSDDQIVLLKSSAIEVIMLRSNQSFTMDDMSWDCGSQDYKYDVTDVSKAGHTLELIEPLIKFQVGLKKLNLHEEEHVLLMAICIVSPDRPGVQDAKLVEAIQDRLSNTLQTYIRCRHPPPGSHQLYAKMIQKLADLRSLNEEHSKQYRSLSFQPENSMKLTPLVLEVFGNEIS
Kind of experiment: Vitamin D receptor competitive binding with [3H]-1,25(OH)2D3. The settings on record: FIG. 1. On the procedure: Full-length recombinant rat receptor was expressed in E. coli BL21 (DE3) Codon Plus RIL cells and purified to homogeneity using two different column chromatography systems. The first system was a nickel affinity resin that utilizes the C-terminal histidine tag on this protein. The protein that was eluted from this resin was further purified using ion exchange chromatography (S-Sepharose Fast Flow). Aliquots of the purified protein were quick frozen in liquid nitrogen and stored at −80° C. until use. For use in binding assays, the protein was diluted in TEDK50 (50 mM Tris, 1.5 mM EDTA, pH7.4, 5 mM DTT, 150 mM KCl) with 0.1% Chaps detergent. The receptor protein and ligand concentration were optimized such that no more than 20% of the added radiolabeled ligand was bound to the receptor.
Radiolabeled and unlabeled ligands were added to 100 mcl of the diluted protein at a final ethanol concentration of ≦10%, mixed and incubated overnight on ice to reach binding equilibrium. The following day, 100 mcl of hydroxylapatite slurry (50%) was added to each tube and mixed at 10-minute intervals for 30 minutes. The hydroxylapaptite was collected by centrifugation and then washed three times with Tris-EDTA buffer (50 mM Tris, 1.5 mM EDTA, pH 7.4) containing 0.5% Titron X-100. […] Total binding was determined from the tubes containing only radiolabeled ligand.

pEC50, pKi: −log10 of the molar value.

`C=C1/C(=C\C=C2/CCC[C@]3(C)[C@@H]([C@H](C)CCCC(C)(C)O)CC[C@@H]23)C[C@@H](O)C[C@@H]1O` [1,25(OH)2D3, 1α,25-dihydroxyvitamin D3, reference compound]: the pEC50 was 8.70 with HL-60 cells and 9.52 in experiment [1]. Moreover, the “mobilization of bone calcium (serum calcium)” value in experiment [2] (260 pmol/day) was “increased serum calcium levels”. The intestinal calcium transport result in experiment [3] is given as “significant increase”.
Regarding `C=C1[C@H](O)CC(=C/C=C2\CCC[C@]3(C)[C@@H](C(=C)CCCC(C)(C)O)CC[C@@H]23)C[C@H]1O` [Vit III 20-21, 2-methylene-20(21)-dehydro-19-nor-1α,25-dihydroxyvitamin D3], the pKi in experiment [4] (full-length recombinant rat VDR, read-out: Ki, competition with [3H]-1,25(OH)2D3 for binding to the vitamin D receptor) is 10.00. Also, the “VDR binding affinity compared to 1,25(OH)2D3” value in experiment [4] (in words) was “same affinity”. For the same compound, the pEC50 with HL-60 cells (Homo sapiens) is 9.15; in experiment [1], 8.70. In addition, the “potency on HL-60 cell differentiation relative to 1,25(OH)2D3” value with HL-60 cells (compared to 1,25(OH)2D3) is 3 to 4 times. Moreover, the “mobilization of bone calcium (serum calcium)” value was “did not result in mobilization of bone calcium” in experiment [2] (260 pmol/day) and “substantial effect” in experiment [2] (2340 pmol/day). Besides, the “bone calcium mobilization activity compared to 1,25(OH)2D3” value in experiment [2] (in words) was “less bone calcium mobilization activity”. Moreover, the intestinal calcium transport entry in experiment [3] is “promotes intestinal calcium transport”. The “intestinal calcium transport activity compared to 1,25(OH)2D3” value in experiment [3] (in words) is “about the same activity”.
